This is an account of results in US8299267B2, “(3-hydroxy-4-amino-butan-2-yl) -3- (2-thiazol-2-yl-pyrrolidine-1-carbonyl) benzamide derivatives and related compounds as beta-secretase inhibitors for treating” (CoMentis, Inc., priority 2007, dated 2012).

The structures appear in SMILES notation. pIC50, pKi: −log10 of the molar value. A value given as a limit tells only on which side of the number the result lay.

One assay addresses memapsin 2 (Homo sapiens, UniProt P56817). Kind of assay: Inhibition of memapsin 2 beta-secretase activity toward fluorogenic substrate FS-2. Particulars: memapsin 2, pH 4, 37° C., 20 minutes pre-incubation, substrate FS-2; read-out: M2Ki. The class given is biochemical. Put shortly: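 Memapsin 2 was preincubated with compound 20 min at pH 4, 37 °C, then reacted with fluorogenic substrate FS-2 (MCA-SEVNLDAEFK-DNP), an APP-derived Swedish-variant peptide. Inhibition was followed kinetically by fluorescence.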

Assay [1] deals with Aβ production in Chinese hamster ovary cells that over-express human APP695 with the London and Swedish mutations. Kind of assay: Cellular Aβ IC50 determination (Aβ40 sandwich ELISA). The note with it: Cricetulus griseus; Aβ40 in CHO cells over-expressing human APP695, 24 h incubation. The class given is cell-based. Put shortly:
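APP695 (London/Swedish)-overexpressing CHO cells were treated 48 h after seeding with serial dilutions from near 4 μM top concentration (0.4% DMSO) for 24 h at 37 °C. Secreted Aβ40 was quantified by sandwich ELISA relative to controls and fit to a 4-parameter IC50 model.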
In general terms: An ELISA detects its analyte on a solid surface through an enzyme-linked reagent.

memapsin 2, sequence (P56817 46-501): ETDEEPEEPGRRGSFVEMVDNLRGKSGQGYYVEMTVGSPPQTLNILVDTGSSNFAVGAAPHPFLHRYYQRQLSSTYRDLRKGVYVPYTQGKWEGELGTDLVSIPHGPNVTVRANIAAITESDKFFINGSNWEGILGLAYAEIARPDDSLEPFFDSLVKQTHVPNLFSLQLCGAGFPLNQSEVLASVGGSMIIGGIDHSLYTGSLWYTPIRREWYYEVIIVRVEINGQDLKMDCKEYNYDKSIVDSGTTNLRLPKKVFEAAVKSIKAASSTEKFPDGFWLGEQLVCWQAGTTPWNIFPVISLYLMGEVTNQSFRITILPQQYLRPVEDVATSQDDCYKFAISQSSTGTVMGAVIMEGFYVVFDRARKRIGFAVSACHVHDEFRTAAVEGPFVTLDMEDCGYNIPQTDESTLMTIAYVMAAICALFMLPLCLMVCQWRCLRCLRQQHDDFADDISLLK

In general, pIC50 refers to the negative decadic logarithm of the IC50, by convention in mol/L. Low readings indicate a large IC50, high ones a small IC50. `Cc1csc([C@H]2CCCN2C(=O)c2cc(C(=O)N[C@@H](Cc3ccccc3)[C@H](O)CNCc3cccc(C(F)(F)F)c3)ccn2)n1` [Compound 64, N-((2S,3R)-3-hydroxy-1-phenyl-4-(3-(trifluoromethyl)benzylamino)butan-2-yl)-2-((R)-2-(4-methylthiazol-2-yl)pyrrolidine-1-carbonyl)isonicotinamide]: the pKi at memapsin 2 is > 7.00. The pIC50 in assay [1] is > 6.52.
On to `Cc1cc(CNC[C@@H](O)[C@H](Cc2ccccc2)NC(=O)c2cccc(C(=O)N3CCC[C@@H]3c3nc(C)cs3)c2)on1` [Compound 65, N-((2S,3R)-3-hydroxy-4-((3-methylisoxazol-5-yl)methylamino)-1-phenylbutan-2-yl)-3-((R)-2-(4-methylthiazol-2-yl)pyrrolidine-1-carbonyl)benzamide], for which the pKi at memapsin 2 is < 6.70. In assay [1], this molecule gave a pIC50 of 6.30 to 6.52.
`Cc1csc([C@H]2CCCN2C(=O)c2cccc(C(=O)N[C@@H](Cc3ccccc3)[C@H](O)CNCc3cc(C)on3)c2)n1` [Compound 66, N-((2S,3R)-3-hydroxy-4-((5-methylisoxazol-3-yl)methylamino)-1-phenylbutan-2-yl)-3-((R)-2-(4-methylthiazol-2-yl)pyrrolidine-1-carbonyl)benzamide]: the pKi at memapsin 2 was > 7.00. For the same molecule, in assay [1], the pIC50 is > 6.52.
On the same counts, the results for `Cc1cc(C(=O)N2CCC[C@@H]2c2nc(C)cs2)cc(C(=O)N[C@@H](Cc2ccccc2)[C@H](O)CNCc2cccc(C(F)(F)F)c2)n1` [Compound 68, N-((2S,3R)-3-hydroxy-1-phenyl-4-(3-(trifluoromethyl)benzylamino)butan-2-yl)-6-methyl-4-((R)-2-(4-methylthiazol-2-yl)pyrrolidine-1-carbonyl)picolinamide] are > 7.00 and > 6.52.
On the same counts, the results for `Cc1csc([C@H]2CCCN2C(=O)c2cccc(C(=O)N[C@@H](Cc3ccccc3)[C@H](O)CNCc3cccc(N(C)C)c3)c2)n1` [Compound 69, N-((2S,3R)-4-(3-(dimethylamino)benzylamino)-3-hydroxy-1-phenylbutan-2-yl)-3-((R)-2-(4-methylthiazol-2-yl)pyrrolidine-1-carbonyl)benzamide] are > 7.00 and > 6.52.
With `Cc1coc([C@H]2CCCN2C(=O)c2cccc(C(=O)N[C@@H](Cc3ccccc3)[C@H](O)CNCc3cccc(C(C)(C)C)c3)c2)n1` [Compound 70, N-((2S,3R)-4-(3-tert-butylbenzylamino)-3-hydroxy-1-phenylbutan-2-yl)-3-((R)-2-(4-methyloxazol-2-yl)pyrrolidine-1-carbonyl)benzamide], on memapsin 2, the pKi was > 7.00. For the same molecule, the pIC50 in assay [1] was > 6.52.
The matching figures for `Cc1coc([C@H]2CCCN2C(=O)c2cncc(C(=O)N[C@@H](Cc3ccccc3)[C@H](O)CNCc3cncc(C(C)C)c3)c2)n1` [Compound 71, N-((2S,3R)-3-hydroxy-4-((5-isopropylpyridin-3-yl)methylamino)-1-phenylbutan-2-yl)-5-((R)-2-(4-methyloxazol-2-yl)pyrrolidine-1-carbonyl)nicotinamide]: > 7.00 and > 6.52.
The matching figures for `Cc1coc([C@H]2CCCN2C(=O)c2cncc(C(=O)N[C@@H](Cc3ccccc3)[C@H](O)CNCc3cncc(C(C)(C)F)c3)c2)n1` [Compound 73, N-((2S,3R)-4-((5-(2-fluoropropan-2-yl)pyridin-3-yl)methylamino)-3-hydroxy-1-phenylbutan-2-yl)-5-((R)-2-(4-methyloxazol-2-yl)pyrrolidine-1-carbonyl)nicotinamide]: > 7.00 and > 6.52.
On to `Cc1csc([C@H]2CCCN2C(=O)c2cc(C(=O)N[C@@H](Cc3ccccc3)[C@H](O)CNCc3cncc(C(C)C)c3)cc(-n3cccc3)c2)n1` [Compound 74, N-((2S,3R)-3-hydroxy-4-((5-isopropylpyridin-3-yl)methylamino)-1-phenylbutan-2-yl)-3-((R)-2-(4-methylthiazol-2-yl)pyrrolidine-1-carbonyl)-5-(1H-pyrrol-1-yl)benzamide], for which the pKi at memapsin 2 is > 7.00. Moreover, the pIC50 in assay [1] is > 6.52.
The matching figures for `Cc1csc([C@H]2CCCN2C(=O)c2cc(C(=O)N[C@@H](Cc3ccccc3)[C@H](O)CNCc3cccc(C(F)(F)F)c3)cc(-c3ccco3)n2)n1` [Compound 75, 2-(furan-2-yl)-N-((2S,3R)-3-hydroxy-1-phenyl-4-(3-(trifluoromethyl)benzylamino)butan-2-yl)-6-((R)-2-(4-methylthiazol-2-yl)pyrrolidine-1-carbonyl)isonicotinamide]: > 7.00 and > 6.52.
On to `Cc1coc([C@H]2CCCN2C(=O)c2cncc(C(=O)N[C@@H](Cc3ccccc3)[C@H](O)CNCc3cccc(C(C)(C)C)c3)c2)n1` [Compound 76, N-((2S,3R)-4-(3-tert-butylbenzylamino)-3-hydroxy-1-phenylbutan-2-yl)-5-((R)-2-(4-methyloxazol-2-yl)pyrrolidine-1-carbonyl)nicotinamide], for which the pKi on memapsin 2 was > 7.00. In addition, the negative logarithm of the IC50 (pIC50) in assay [1] was > 6.52.
For the molecule `Cc1coc([C@H]2CCCN2C(=O)c2cc(CF)cc(C(=O)N[C@@H](Cc3ccccc3)[C@H](O)CNCc3cncc(C(C)C)c3)c2)n1` [Compound 77, 3-(fluoromethyl)-N-((2S,3R)-3-hydroxy-4-((5-isopropylpyridin-3-yl)methylamino)-1-phenylbutan-2-yl)-5-((R)-2-(4-methyloxazol-2-yl)pyrrolidine-1-carbonyl)benzamide], the pKi on memapsin 2 was > 7.00. For the same molecule, in assay [1], the pIC50 is > 6.52.
The matching figures for `Cc1coc([C@H]2CCCN2C(=O)c2cc(CF)cc(C(=O)N[C@@H](Cc3ccccc3)[C@H](O)CNCc3cncc(C(C)(C)F)c3)c2)n1` [Compound 78, 3-(fluoromethyl)-N-((2S,3R)-4-((5-(2-fluoropropan-2-yl)pyridin-3-yl)methylamino)-3-hydroxy-1-phenylbutan-2-yl)-5-((R)-2-(4-methyloxazol-2-yl)pyrrolidine-1-carbonyl)benzamide]: > 7.00 and > 6.52.
The matching figures for `Cc1cc(C(=O)N[C@@H](Cc2ccccc2)[C@H](O)CNCc2cccc(C(F)(F)F)c2)cc(C(=O)N2CCC[C@@H]2c2nc(C)cs2)n1` [Compound 79, N-((2S,3R)-3-hydroxy-1-phenyl-4-(3-(trifluoromethyl)benzylamino)butan-2-yl)-2-methyl-6-((R)-2-(4-methylthiazol-2-yl)pyrrolidine-1-carbonyl)isonicotinamide]: > 7.00 and > 6.52.
On the same counts, the results for `Cc1csc([C@H]2CCCN2C(=O)c2cc(C(=O)N[C@@H](Cc3ccccc3)[C@H](O)CNCc3cccc(C(F)(F)F)c3)cc(-n3cccc3)c2)n1` [Compound 80, N-((2S,3R)-3-hydroxy-1-phenyl-4-(3-(trifluoromethyl)benzylamino)butan-2-yl)-3-((R)-2-(4-methylthiazol-2-yl)pyrrolidine-1-carbonyl)-5-(1H-pyrrol-1-yl)benzamide] are > 7.00 and > 6.52.
For `Cc1csc([C@H]2CCCN2C(=O)c2cc(C(=O)N[C@@H](Cc3ccccc3)[C@H](O)CNCc3cccc(C(F)(F)F)c3)nc(N(C)C)c2)n1` [Compound 81, 6-(dimethylamino)-N-((2S,3R)-3-hydroxy-1-phenyl-4-(3-(trifluoromethyl)benzylamino)butan-2-yl)-4-((R)-2-(4-methylthiazol-2-yl)pyrrolidine-1-carbonyl)picolinamide], on memapsin 2, the pKi was > 7.00. In addition, the pIC50 in assay [1] was > 6.52.
